These results are taken from PMC4492764, “Evaluation of biomarkers for in vitro prediction of drug-induced nephrotoxicity: comparison of HK-2, immortalized human proximal tubule epithelial, and primary cultures of human proximal tubular cells” (Pharmacology Research & Perspectives, 2015).

Where a name gives a salt, the structure may show the parent alone.

What all share (type): cell-based, human
In one data set the test system is NGAL. The data set is described as follows: NGAL protein ELISA in HK-2 cells. The arrangement: key: +: statistically significant increase; −: no significant increase. The settings on record: protein levels in culture medium; 72 h time point. On the procedure:
HK-2 cells (ATCC CRL-2190; Manassas, VA) were maintained in DMEM/F12 (Life Technologies; Sydney, NSW, Australia) supplemented with 5 μg/mL insulin, 5 μg/mL transferrin, 5 ng/mL sodium selenite (ITS; Roche; […] (passage 2) and culture kits were purchased from Lonza. […] were maintained in Renal Epithelial Cell BulletKitTM (CC-3190, Lonza) at 37°C and 5% CO2 atmosphere. Cells were passaged to 96-well plates with a density of 4000 cells/well. After 24 h culture, compounds with different concentration series were added into each well and incubated for 4, 24, 48, and 72 h. KIM-1 (DY1750), NGAL (DY1757), and M-CSF (DY216) Duo-Set® ELISA kits were purchased from R&D systems (Minneapolis, MN). Sandwich-ELISA experiments were conducted following the manufacturer's instructions with slight modifications. A 96-well microplate (MaxiSorp®, Nunc, Thermo Scientific, NSW, Australia) was coated with 100 μL of capture antibodies (diluted 1:200 in PBS) and incubated overnight. The plate was then washed twice with washing buffer (0.05% Tween 20 in PBS, pH 7.4) and blocked by adding 300 μL of blocking buffer (1% bovine serum albumin (BSA) in PBS) for 1 h at room temperature. After washing two times with PBS, 100 μL of samples (cell culture media or cell lysates) or standards were then added to each well and incubated for 2 h at room temperature. The biotinylated detection antibodies were then diluted in blocking buffer, added to each well and incubated for 2 h. Horseradish peroxidase (HRP)-labeled streptavidin (100 μL) was then added to bind to detection antibodies. To each well, 100 μL of substrate solution (1:1 mixture of H2O2 and tetramethylbenzidine) was added and incubated for 20 min before reaction termination with 50 μL of stop solution (2N H2SO4). The optical density of each well was measured at 450 nm using a POLARstar Omega plate reader (BMG Labtech). All assays were performed at least three times, with at least two technical replicates in each assay.

The next data set relates to KIM-1 mRNA. The data set is described as follows: KIM-1 mRNA qRT-PCR in HK-2 cells. The settings on record: for Upregulation of KIM-1 HK-2 R: mRNA levels, 72 h time point. The arrangement: key to Upregulation of KIM-1 HK-2 R: +: statistically significant increase; −: no significant increase. Here is the method: (§1) HK-2 cells (ATCC CRL-2190; Manassas, VA) were maintained in DMEM/F12 (Life Technologies; Sydney, NSW, Australia) supplemented with 5 μg/mL insulin, 5 μg/mL transferrin, 5 ng/mL sodium selenite (ITS; Roche; […] (passage 2) and culture kits were purchased from Lonza. […] were maintained in Renal Epithelial Cell BulletKitTM (CC-3190, Lonza) at 37°C and 5% CO2 atmosphere. Cells were passaged to 96-well plates with a density of 4000 cells/well. After 24 h culture, compounds with different concentration series were added into each well and incubated for 4, 24, 48, and 72 h. HK-2 and […] were treated with compounds for 4, 24, 48, and 72 h, then the cells were lysed and the RNA reverse transcribed with the TaqMan® Gene Expression Cells-to-CTTM Kit (Life Technologies) according to the manufacturer's instructions. […] Hs00273334_m1), Lcn2 (NGAL; Hs01008571_m1), and Csf1 (M-CSF; Hs00174164_m1). All probes span an exon-exon junction. The real-time quantitative reverse transcription PCR (qRT-PCR) was performed in a 10 μl final reaction mixture using a ViiA 7TM system (Applied Biosystems®, Sydney, NSW, Australia) based on the following thermo cycling conditions: 10 min at 95°C for one cycle, 15 sec at 95°C, 60 sec at 60°C for 40 cycles. The ViiA 7TM software was used for data analysis with Hprt1 expression used for normalization. All assays were performed at least three times, with at least two technical replicates in each assay.
Background: In qPCR the cycle at which signal appears reflects the starting amount.

The next data set concerns NGAL mRNA. Briefly: NGAL mRNA qRT-PCR in hRPTECs. The arrangement: key to Upregulation of NGAL hRPTECs R: +: statistically significant increase; −: no significant increase. The settings on record: for Upregulation of NGAL hRPTECs R: mRNA levels, 72 h time point; for NGAL mRNA levels in hRPTECs: 72 h exposure. On the procedure: as §1
For another data set, the system named is KIM-1. The data set is described as follows: KIM-1 protein ELISA in freshly isolated hPT cells. The conditions noted are these: for KIM-1 protein increase in hPT cell lysate: 24 h treatment; for KIM-1 protein upregulation in hPT cells: high doses, within 24 h; for Upregulation of KIM-1 hPT P(L): protein levels in cell lysates, table title says 72 h time point. Here is the method:
hPT cells were derived from whole human kidneys procured by the International Institute for the Advancement of Medicine (Edison, NJ). All tissues were scored by a pathologist as normal (i.e., derived from noncancerous, nondiseased tissue). […] Whole kidneys were perfused with Wisconsin medium and kept on ice until they arrived at the laboratory, which was usually within 24 h of removal from the donor. All buffers were continuously bubbled with 95% O2/5% CO2 and were maintained at 37°C. Minced cortical pieces from whole kidneys were subjected to collagenase digestion for 60 min, after which the supernatant was filtered through a 70-μm mesh filter to remove tissue fragments, centrifuged at 150g for 7 min, and the pellet resuspended in Dulbecco’s Modified Eagle’s Medium: […] Approximately, 5–7 × 10^6 cells were obtained per 1 g of human kidney cortical tissue. […] Composition of this supplemented medium was based on earlier work establishing optimal conditions for primary culture of rat PT cells (Lash et al., [1995]). Basal medium was a 1:1 mixture of DMEM/F12. […] Cultures were grown at 37°C in a humidified incubator under an atmosphere of 95% air/5% CO2 at pH 7.4. Cultures were grown to approximately 80–90% confluence (generally 5–6 days) prior to experiments. Cells were harvested by either scraping the flasks with a Teflon scraper or by brief incubation with Cellstripper (Cellgro, Herndon, VA) (in Ca^2+- and Mg^2+-free Hanks’ buffer). KIM-1 (DY1750), NGAL (DY1757), and M-CSF (DY216) Duo-Set® ELISA kits were purchased from R&D systems (Minneapolis, MN). Sandwich-ELISA experiments were conducted following the manufacturer’s instructions with slight modifications. A 96-well microplate (MaxiSorp®, Nunc, Thermo Scientific, NSW, Australia) was coated with 100 μL of capture antibodies (diluted 1:200 in PBS) and incubated overnight. The plate was then washed twice with washing buffer (0.05% Tween 20 in PBS, pH 7.4) and blocked by adding 300 μL of blocking buffer (1% bovine serum albumin (BSA) in PBS) for 1 h at room temperature. After washing two times with PBS, 100 μL of samples (cell culture media or cell lysates) or standards were then added to each well and incubated for 2 h at room temperature. The biotinylated detection antibodies were then diluted in blocking buffer, added to each well and incubated for 2 h. Horseradish peroxidase (HRP)-labeled streptavidin (100 μL) was then added to bind to detection antibodies. To each well, 100 μL of substrate solution (1:1 mixture of H2O2 and tetramethylbenzidine) was added and incubated for 20 min before reaction termination with 50 μL of stop solution (2N H2SO4). The optical density of each well was measured at 450 nm using a POLARstar Omega plate reader (BMG Labtech). All assays were performed at least three times, with at least two technical replicates in each assay.
In general terms: An ELISA detects its analyte on a solid surface through an enzyme-linked reagent.

For `CNC(C)C1CCC(N)C(OC2C(N)CC(N)C(OC3OCC(C)(O)C(NC)C3O)C2O)O1` (stereo not drawn) [Gentamicin, gentamicin sulfate], the “Upregulation of NGAL HK-2 P” value in the data set with NGAL was “−”. Moreover, in the data set with KIM-1 mRNA, the “Upregulation of KIM-1 HK-2 R” value is “−”. Further, the “Upregulation of NGAL hRPTECs R” value in the data set with NGAL mRNA is on record as “−”. The “KIM-1 protein increase in hPT cell lysate” value (shortened to “KIM-1 protein increase”) in the data set with KIM-1 (300 μmol/L) is on record as “fivefold”. Also, in the data set with KIM-1, the “KIM-1 protein upregulation in hPT cells” value is given as “significant upregulation” and the “Upregulation of KIM-1 hPT P(L)” value was “Greater than fivefold”.

In the case of `N.N.[Cl][Pt][Cl]` [Cisplatin, cisplatin], the “Upregulation of NGAL HK-2 P” value in the data set with NGAL is listed as “−”. Further, the “KIM-1 mRNA transcription level in HK-2 cells” value in the data set with KIM-1 mRNA (72 h, P < 0.005) is reported as “increased”. Moreover, the “Upregulation of KIM-1 HK-2 R” value with KIM-1 mRNA is recorded as “+”. Also, in the data set with NGAL mRNA (10 μmol/L, P < 0.05), the “NGAL mRNA levels in hRPTECs” value is recorded as “kept rising”. Besides, the “Upregulation of NGAL hRPTECs R” value in the data set with NGAL mRNA is recorded as “+”. In addition, the “KIM-1 protein increase” value in the data set on KIM-1 (100 μmol/L) came out at 32 fold. In the data set with KIM-1, the “KIM-1 protein upregulation in hPT cells” value is “significant upregulation” and the “Upregulation of KIM-1 hPT P(L)” value was >32-fold.

On to Colistin sulfate, for which the “Upregulation of NGAL HK-2 P” value in the data set on NGAL is on record as “−”. In addition, in the data set with KIM-1 mRNA, the “Upregulation of KIM-1 HK-2 R” value is recorded as “−”. In the data set with NGAL mRNA (100 μmol/L, P < 0.01), the “NGAL mRNA levels in hRPTECs” value is recorded as “kept rising”. For the same compound, in the data set on NGAL mRNA, the “Upregulation of NGAL hRPTECs R” value is “+”. The “KIM-1 protein increase” value with KIM-1 (300 μmol/L) is given as 12 fold. Also, in the data set on KIM-1, the “KIM-1 protein upregulation in hPT cells” value was “significant upregulation” and the “Upregulation of KIM-1 hPT P(L)” value is listed as >12-fold.
